The source of these data is US10744457B2, “Electrochemical separator” (Hamilton Sundstrand Corporation, priority 2017, dated 2020).

Molecules are shown by their SMILES.

This data set in a line: susceptibility to oxidation in the presence of free oxygen. Format: physicochemical. The settings on record: inferred from redox potential. From the text:
Another example would be an anthraquinone functionalized with sulfonate groups, such as 2,7 anthraquinone disulfonic acid. The 1,2 benzoquinone disulfonic acid has a higher reduction-oxidation potential than anthraquinone (approximately 0.8V versus 0.2V, as determined against a reversible hydrogen electrode).

With `O=C1c2ccc(S(=O)(=O)O)cc2C(=O)c2cc(S(=O)(=O)O)ccc21` [2,7 anthraquinone disulfonic acid], the “oxidation in the presence of oxygen” value is given as “more susceptible to oxidation in the presence of free oxygen”.
